# Literature values as cited in US9676702B2, “Methods for synthesizing amatoxin building block and amatoxins” (Heidelberg Pharma GmbH, priority 2012, dated 2017).
# Biological target: RNA-polymerase II (Homo sapiens, UniProt P24928+P30876)
# Conditions: non-covalent complex; background statement, no method given; read-out: KD of the complex between amanitin and RNA-polymerase II
substance,measurement,value
amanitin,Kd,3 nM
